Laboratory results reported in paper PMC9098912, “Molecular basis for inhibiting human glucose transporters by exofacial inhibitors” (Nature Communications, 2022).
Changes are numbered by the printed parent chain.

Columns and labels:
Experiment in all cases: MST binding assay, GLUT3 variant
Conditions in all cases: read-out: Kd of SA47
GLUT3 E378A = biological target: T1, GLUT3 E378A (Homo sapiens, UniProt P11169, E378A/N43T)
T1 construct: His10 (N); made in house; host or cells: Sf9 insect cells (baculovirus)
T1 sequence (P11169 1-496 N43T/E378A): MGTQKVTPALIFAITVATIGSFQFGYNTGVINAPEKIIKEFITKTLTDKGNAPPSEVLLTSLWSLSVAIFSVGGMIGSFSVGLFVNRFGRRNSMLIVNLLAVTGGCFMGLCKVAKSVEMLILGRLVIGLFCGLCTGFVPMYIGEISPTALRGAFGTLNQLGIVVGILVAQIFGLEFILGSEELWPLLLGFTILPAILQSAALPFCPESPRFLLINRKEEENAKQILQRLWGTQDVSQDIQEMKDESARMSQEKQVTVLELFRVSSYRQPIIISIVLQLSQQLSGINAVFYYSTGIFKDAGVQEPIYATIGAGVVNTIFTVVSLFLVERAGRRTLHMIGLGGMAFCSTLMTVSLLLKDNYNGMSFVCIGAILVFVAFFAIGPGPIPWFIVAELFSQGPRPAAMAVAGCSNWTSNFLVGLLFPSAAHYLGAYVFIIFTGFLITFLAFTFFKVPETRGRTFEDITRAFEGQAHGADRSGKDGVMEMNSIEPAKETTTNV
Procedure: (§1) All mutants were generated by standard PCR-based strategy.
(§2) Inhibitors with serial dilutions were mixed with indicated protein. […] MST analyses were conducted on a Monolith NT. […] The MST data was analyzed by Monolith NT.115.

GLUT3 F289A = biological target: T2, GLUT3 F289A (Homo sapiens, UniProt P11169, F289A/N43T)
T2 construct: His10 (N); made in house; host or cells: Sf9 insect cells (baculovirus)
T2 sequence (P11169 1-496 N43T/F289A): T1 sequence (P11169 1-496 N43T/E378A) with F289A, A378E
Procedure: as §1, §2

GLUT3 N32A = biological target: T3, GLUT3 N32A (Homo sapiens, UniProt P11169, N32A/N43T)
T3 construct: His10 (N); made in house; host or cells: Sf9 insect cells (baculovirus)
T3 sequence (P11169 1-496 N32A/N43T): T1 sequence (P11169 1-496 N43T/E378A) with N32A, A378E
Procedure: as §1, §2

GLUT3 Q159A = biological target: T4, GLUT3 Q159A (Homo sapiens, UniProt P11169, N43T/Q159A)
T4 construct: His10 (N); made in house; host or cells: Sf9 insect cells (baculovirus)
T4 sequence (P11169 1-496 N43T/Q159A): T1 sequence (P11169 1-496 N43T/E378A) with Q159A, A378E
Procedure: as §1, §2

GLUT3 W386A = biological target: T5, GLUT3 W386A (Homo sapiens, UniProt P11169, N43T/W386A)
T5 construct: His10 (N); made in house; host or cells: Sf9 insect cells (baculovirus)
T5 sequence (P11169 1-496 N43T/W386A): T1 sequence (P11169 1-496 N43T/E378A) with A378E, W386A
Procedure: as §1, §2

SMILES: COC(=O)CCNCc1ccccc1-n1ncc2c(N3CCN(c4cc(F)ccc4OC)CC3)ncnc21 [SA47]
- Kd (GLUT3 E378A): 1100 ± 100 nM
- Kd (GLUT3 F289A): 164 ± 67 nM
- Kd (GLUT3 N32A): 941 ± 213 nM
- Kd (GLUT3 Q159A): 4100 ± 800 nM
- Kd (GLUT3 W386A): 30300 ± 10700 nM
